Source: ChEMBL document CHEMBL1201862, “PubChem BioAssay data set” (2004)
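Values below derive from 48-hour exposures of cells grown in 96-well plates, with endpoints linearly interpolated between the two concentrations bracketing the appropriate inhibition level. At the GI50, growth is halved.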 Activity calls are given as the source filed them. Cut-off read from the data, not from the text of the source: active = GI50 up to about 1.1 µM and inactive = higher.

Assays:
Assay in all cases: inhibition of tumour cell growth, NCI panel, 48 h
Malme-3M = system: Malme-3M
NCI-H23 = system: NCI-H23
OVCAR-3 = system: OVCAR-3
SNB-19 = system: SNB-19
NCI-H522 = system: NCI-H522
COLO 205 = system: COLO 205
CAKI-1 = system: CAKI-1
HT-29 = system: HT-29
BT-549 = system: BT-549
MOLT-4 = system: MOLT-4
SF-295 = system: SF-295
T47D = system: T47D
HOP-62 = system: HOP-62
A549 = system: A549
UO-31 = system: UO-31
UACC-62 = system: UACC-62
NCI/ADR-RES = system: NCI/ADR-RES
ACHN = system: ACHN
RXF 393 = system: RXF 393
SNB-75 = system: SNB-75

Measured: GI50

Cc1cc(N)c2cc(NC(=O)Nc3ccc4nc(C)cc(N)c4c3)ccc2n1
inactive: Malme-3M > 100 µM | NCI-H23 > 100 µM | OVCAR-3 > 100 µM | SNB-19 > 100 µM | NCI-H522 > 100 µM | COLO 205 > 100 µM | CAKI-1 > 100 µM | HT-29 > 100 µM | BT-549 > 100 µM | MOLT-4 > 100 µM | SF-295 89.5 µM | T47D > 100 µM | HOP-62 61.8 µM | A549 > 100 µM | UO-31 > 100 µM | UACC-62 > 100 µM | NCI/ADR-RES > 100 µM | ACHN > 100 µM

N#CCC12CC=CCC1=C(O)C(=O)c1ccc(O)cc12 (stereo not drawn)
inactive: Malme-3M > 100 µM | NCI-H23 > 100 µM | RXF 393 > 100 µM | OVCAR-3 > 100 µM | SNB-19 > 100 µM | NCI-H522 > 100 µM | COLO 205 > 100 µM | CAKI-1 > 100 µM | SNB-75 67.6 µM | HT-29 > 100 µM | MOLT-4 > 100 µM | SF-295 > 100 µM | T47D > 100 µM | HOP-62 > 100 µM | A549 > 100 µM | UO-31 48.6 µM | UACC-62 > 100 µM | NCI/ADR-RES > 100 µM | ACHN > 100 µM

CN1c2ccccc2C2=C(c3ccccc3)CC[C@@H](C(=O)N3C4CC5CC[C@@]4(CS3(=O)=O)C5(C)C)[C@@H]21 (stereo partly drawn)
inactive: Malme-3M > 100 µM | NCI-H23 > 100 µM | OVCAR-3 > 100 µM | SNB-19 > 100 µM | NCI-H522 92.3 µM | COLO 205 > 100 µM | CAKI-1 > 100 µM | SNB-75 > 100 µM | HT-29 > 100 µM | BT-549 > 100 µM | MOLT-4 4.58 µM | SF-295 > 100 µM | T47D > 100 µM | HOP-62 > 100 µM | A549 > 100 µM | UO-31 > 100 µM | UACC-62 > 100 µM | NCI/ADR-RES > 100 µM | ACHN > 100 µM

O=[N+]([O-])C(=C(N1CCOCC1)N1CCOCC1)/C(Cl)=C(\Cl)Br
inactive: Malme-3M 16.1 µM | NCI-H23 17.3 µM | OVCAR-3 14.5 µM | SNB-19 > 100 µM | NCI-H522 2.41 µM | COLO 205 14.8 µM | SNB-75 17.5 µM | HT-29 26.8 µM | BT-549 13.3 µM | MOLT-4 15.3 µM | SF-295 > 100 µM | T47D 15.7 µM | HOP-62 > 100 µM | A549 > 100 µM | UO-31 18.4 µM | NCI/ADR-RES 22.2 µM | ACHN 24.8 µM

Cc1nn(C(=O)Cc2ccccc2)c2c1C(c1ccc([N+](=O)[O-])cc1)SC(=N)N2 (stereo not drawn)
inactive: Malme-3M > 100 µM | NCI-H23 > 100 µM | NCI-H522 > 100 µM | COLO 205 > 100 µM | CAKI-1 > 100 µM | HT-29 > 100 µM | BT-549 > 100 µM | MOLT-4 > 100 µM | SF-295 > 100 µM | T47D > 100 µM | HOP-62 > 100 µM | A549 > 100 µM | UACC-62 > 100 µM | ACHN > 100 µM

c1ccc(CN2CCC3(CC2)SSC2(CCN(Cc4ccccc4)CC2)S3)cc1
inactive: Malme-3M 53.7 µM | NCI-H23 30.1 µM | OVCAR-3 76.4 µM | COLO 205 17 µM | CAKI-1 26.9 µM | SNB-75 > 100 µM | HT-29 17.6 µM | BT-549 > 100 µM | MOLT-4 > 100 µM | SF-295 26.5 µM | HOP-62 > 100 µM | A549 27.7 µM | UO-31 > 100 µM | UACC-62 82.8 µM | NCI/ADR-RES > 100 µM | ACHN > 100 µM

COC(=O)[C@@H]1CCc2nc3ccccc3c(=O)n21
inactive: NCI-H23 > 100 µM | OVCAR-3 > 100 µM | NCI-H522 > 100 µM | COLO 205 > 100 µM | CAKI-1 > 100 µM | SNB-75 > 100 µM | HT-29 > 100 µM | BT-549 > 100 µM | MOLT-4 > 100 µM | SF-295 > 100 µM | T47D > 100 µM | HOP-62 > 100 µM | A549 > 100 µM | UO-31 > 100 µM | UACC-62 > 100 µM | NCI/ADR-RES > 100 µM | ACHN > 100 µM

Clc1cc(Cl)ncn1
inactive: Malme-3M > 100 µM | NCI-H23 > 100 µM | RXF 393 > 100 µM | OVCAR-3 > 100 µM | SNB-19 > 100 µM | NCI-H522 > 100 µM | COLO 205 > 100 µM | CAKI-1 > 100 µM | SNB-75 > 100 µM | HT-29 > 100 µM | MOLT-4 > 100 µM | SF-295 > 100 µM | T47D > 100 µM | HOP-62 > 100 µM | A549 > 100 µM | UO-31 > 100 µM | UACC-62 > 100 µM | NCI/ADR-RES > 100 µM | ACHN > 100 µM

C[C@]12CC[C@H](O)CC1=CC[C@@H]1[C@@H]2CC[C@]2(C)C(=O)[C@@H](N3CCOCC3)C[C@@H]12
inactive: Malme-3M > 100 µM | NCI-H23 57.8 µM | RXF 393 36.9 µM | OVCAR-3 > 100 µM | SNB-19 > 100 µM | NCI-H522 23.6 µM | COLO 205 > 100 µM | CAKI-1 3.26 µM | SNB-75 30.6 µM | HT-29 > 100 µM | MOLT-4 55.3 µM | SF-295 > 100 µM | T47D 31 µM | HOP-62 > 100 µM | A549 > 100 µM | UO-31 > 100 µM | UACC-62 76.4 µM | NCI/ADR-RES 61.2 µM | ACHN > 100 µM

O=C1C(=C/C=C2/SC(c3ccccc3)(c3ccccc3)c3ccccc32)C(=O)c2ccccc21
inactive: Malme-3M > 100 µM | NCI-H23 > 100 µM | RXF 393 > 100 µM | OVCAR-3 > 100 µM | SNB-19 > 100 µM | NCI-H522 > 100 µM | COLO 205 > 100 µM | CAKI-1 > 100 µM | SNB-75 > 100 µM | HT-29 > 100 µM | BT-549 > 100 µM | MOLT-4 > 100 µM | SF-295 > 100 µM | HOP-62 > 100 µM | A549 > 100 µM | UO-31 > 100 µM | UACC-62 > 100 µM | NCI/ADR-RES > 100 µM | ACHN > 100 µM

NS(=O)(=O)c1nnc(NS(=O)(=O)c2cccc3cccnc23)s1
inactive: NCI-H23 > 100 µM | RXF 393 > 100 µM | OVCAR-3 > 100 µM | SNB-19 > 100 µM | COLO 205 > 100 µM | CAKI-1 > 100 µM | BT-549 > 100 µM | MOLT-4 > 100 µM | SF-295 > 100 µM | T47D > 100 µM | HOP-62 > 100 µM | A549 > 100 µM | UO-31 > 100 µM | UACC-62 > 100 µM | NCI/ADR-RES > 100 µM | ACHN > 100 µM
